Source: patent US20080182895A1 (priority 2006, published 2008)
Values joined by “and” are separate entries in the source; they are usually repeats but may differ in a detail not shown here. Equal entries are not always repeated. Where two headings read alike, the source gives them in different places.

Experiments:
796R(0.1 μM) cells = assay: HCV replicon 3-day assay in variant cells; format: cell-based, Hepatitis C virus
Procedure: (§1) All resistant cells were cultured at the indicated drug concentrations in the presence of 0.5 mg/ml G418 for at least 3 weeks before analysis.
(§2) The levels of HCV RNA were determined using a quantitative TAQMAN® RT-PCR (PE Applied Biosystems, Foster City, Calif.).
(§3) Drug susceptibility of the replicon-containing cells to various compounds was evaluated as described previously (Howe et al. (2004) Antimicrobial Agents Chem. 48:4813-21). Briefly, cells were treated with increasing concentrations of compounds in medium containing 2% FCS and no G418 for three days at 37° C. and 5% CO2. After incubation, total RNA from the replicon-containing cells was isolated. The levels of HCV, glyceraldehyde 3-phosphate dehydrogenase (GAPDH) and ribosomal (rRNA) RNAs were quantified using TAQMAN® (PE Applied Biosystems, Foster City, Calif.) reverse transcriptase PCR reactions. The amounts of HCV, 18S ribosomal, and GAPDH RNAs in each sample were estimated by comparing the number of cycles during the exponential phase of the PCR amplification with those in the corresponding standard curves. HCV RNA standards used for the construction of the standard curve were prepared by extracting the total RNA from the Clone A cells. The RNA sample was sent to National Genetics Institute to quantify HCV RNA. Total RNA extracted from Clone A cells was quantified by O.D.260 measurement and used for construction of the standard curves of rRNA and GAPDH. The concentrations of the compounds that inhibit 50% of the HCV RNA level (EC50) were determined using the MDL® LIFE SCIENCE WORKBENCH® (LSW) Data Analysis software (MDL Information Systems, San Leandro, Calif.) in Microsoft EXCEL®. The amounts of HCV or GAPDH RNAs in the samples were expressed as HCV RNA (copies) or GAPDH (ng), respectively, per μg of total RNA using rRNA as a marker for total RNA measurement.

796R(10 μM) cells = assay: HCV replicon 3-day assay in variant cells; format: cell-based, Hepatitis C virus
Procedure: as §1, §2, §3

[1] = test system: GAPDH mRNA in Clone A cells; format: cell-based, human; conditions: 0.1 and 1 μM HCV-796, throughout the 16-day period
1b, BB7 replicon (WT) = assay: Replicon 3-day assay, wild type; format: cell-based, Hepatitis C virus; conditions: for EC50: Hepatitis C virus
Procedure: (§4) pBB7-replicon variant DNAs were linearized with Sca I, and in vitro transcription was performed using Ambion's […]® T7 High Yield Transcription kit (Austin, Tex.). Purified RNA transcripts were electroporated into Huh-7 cells in quadruplicates using a Biorad GENE PULSER® Electroporation System (Setting: 270V, 950 μF) (Hercules, Calif.). Stably transfected replicon variant cell lines were initially selected with 0.25 mg/ml G418 and stepped up to 1 mg/ml before further testing. One cell plate was stained with Crystal Violet to visualize the number of colonies and determine the colony formation efficiency. Individual cell clones from each plate were pooled and expanded for drug susceptibility testing.
(§5) The contribution of individual amino acid changes on drug resistance was assessed in replicon variants containing single amino acid mutations in NS5B in the background of the genotype 1b, BB7 adaptive replicon (Blight et al. (2000) Science 290:1972-74).
as §3

1b, BB7-C316F replicon = assay: Replicon variant 3-day assay; format: cell-based, Hepatitis C virus
Procedure: as §4, §5, §3

1b, BB7-C316S replicon = assay: Replicon variant 3-day assay; format: cell-based, Hepatitis C virus
Procedure: as §4, §5, §3

1b, BB7-C316Y replicon = assay: Replicon variant 3-day assay; format: cell-based, Hepatitis C virus; conditions: 1b
Procedure: as §4, §5, §3

1b, BB7-I363V replicon = assay: Replicon variant 3-day assay; format: cell-based, Hepatitis C virus
Procedure: as §4, §5, §3

1b, BB7-L314F replicon = assay: Replicon variant 3-day assay; format: cell-based, Hepatitis C virus
Procedure: as §4, §5, §3

1b, BB7-M414I replicon = assay: Replicon variant 3-day assay; format: cell-based, Hepatitis C virus
Procedure: as §4, §5, §3

1b, BB7-M414T replicon = assay: Replicon variant 3-day assay; format: cell-based, Hepatitis C virus
Procedure: as §4, §5, §3

1b, BB7-M414V replicon = assay: Replicon variant 3-day assay; format: cell-based, Hepatitis C virus
Procedure: as §4, §5, §3

1b, BB7-S365A replicon = assay: Replicon variant 3-day assay; format: cell-based, Hepatitis C virus
Procedure: as §4, §5, §3

1b, BB7-S365T replicon = assay: Replicon variant 3-day assay; format: cell-based, Hepatitis C virus
Procedure: as §4, §5, §3

1b, BB7-S368F replicon = assay: Replicon variant 3-day assay; format: cell-based, Hepatitis C virus
Procedure: as §4, §5, §3

Compound: CNC(=O)c1c(-c2ccc(F)cc2)oc2cc(N(CCO)S(C)(=O)=O)c(C3CC3)cc12 [HCV-796, 5-cyclopropyl-2-(4-fluorophenyl)-6-[(2-hydroxyethyl)(methylsulfonyl)amino]-N-methyl-1-benzofuran-3-carboxamide]
- Fold Reduced Susceptibility (796R(0.1 μM) cells; 796R(0.1 μM) cells vs Clone A control): 23 fold
- Mean log10 Viral Reduction (796R(0.1 μM) cells; 796R(0.1 μM) cells, 56 μM compound, 3-day assay): 1.4 log10 and 1.4 ± 0.3 (56 μM) log10
- EC50 (796R(0.1 μM) cells; Hepatitis C virus, 796R(0.1 μM) cells, HCV RNA, 72 hours): 0.3 ± 0.2 µM
- Fold Reduced Susceptibility (796R(10 μM) cells; 796R(10 μM) cells vs Clone A control): 6812 fold and >6812 fold
- Mean log10 Viral Reduction (796R(10 μM) cells; 796R(10 μM) cells, 56 μM compound, 3-day assay): 0.5 log10 and 0.5 ± 0.3 (56 μM) log10
- EC50 (796R(10 μM) cells; Hepatitis C virus, 796R(10 μM) cells, HCV RNA, 72 hours): > 88 µM
- level of housekeeping gene GAPDH mRNA [1]: remained essentially unchanged
- Viral Load Reduction (1b, BB7 replicon (WT); 1b, BB7, 2240 nM HCV-796, 3-day assay): 1.9 ± 0.3 log
- EC50 (1b, BB7 replicon (WT)): 8.6 nM
- EC50 (1b, BB7 replicon (WT); 72 h, 1b, BB7, 3-day assay, read-out: HCV RNA EC50 (nM) ± SD): 3 ± 1 nM
- Fold Resistance (1b, BB7-C316F replicon; BB7-C316F vs 1b, BB7): 130 fold
- Viral Load Reduction (1b, BB7-C316F replicon; BB7-C316F, 2240 nM HCV-796, 3-day assay): 0.8 ± 0.5 log
- EC50 (1b, BB7-C316F replicon; Hepatitis C virus, 72 h, BB7-C316F, 3-day assay, read-out: HCV RNA EC50 (nM) ± SD): 392 nM
- Fold Resistance (1b, BB7-C316S replicon; BB7-C316S vs 1b, BB7): 10 fold
- Viral Load Reduction (1b, BB7-C316S replicon; BB7-C316S, 2240 nM HCV-796, 3-day assay): 1.3 ± 0.1 log
- EC50 (1b, BB7-C316S replicon; Hepatitis C virus, 72 h, BB7-C316S, 3-day assay, read-out: HCV RNA EC50 (nM) ± SD): 30 nM
- Fold Resistance (1b, BB7-C316Y replicon; BB7-C316Y vs 1b, BB7): 166 fold
- Viral Load Reduction (1b, BB7-C316Y replicon; BB7-C316Y, 2240 nM HCV-796, 3-day assay): 0.9 ± 0.2 log
- EC50 (1b, BB7-C316Y replicon; Hepatitis C virus, 72 h, BB7-C316Y, 3-day assay, read-out: HCV RNA EC50 (nM) ± SD): 501 nM
- Fold Resistance (1b, BB7-I363V replicon; BB7-I363V vs 1b, BB7): 5 fold
- Viral Load Reduction (1b, BB7-I363V replicon; BB7-I363V, 2240 nM HCV-796, 3-day assay): 1.4 ± 0.1 log
- EC50 (1b, BB7-I363V replicon; Hepatitis C virus, 72 h, BB7-I363V, 3-day assay, read-out: HCV RNA EC50 (nM) ± SD): 16 ± 5 nM
- Fold Resistance (1b, BB7-L314F replicon; 1b, BB7-L314F vs 1b, BB7): 1 fold
- Viral Load Reduction (1b, BB7-L314F replicon; 1b, BB7-L314F, 2240 nM HCV-796, 3-day assay): 1.6 ± 0.3 log
- EC50 (1b, BB7-L314F replicon; Hepatitis C virus, 72 h, 1b, BB7-L314F, 3-day assay, read-out: HCV RNA EC50 (nM) ± SD): 4 ± 2 nM
- change of susceptibility to HCV-796 (in words) (1b, BB7-L314F replicon; L314F replicon vs wild type): did not change the susceptibility
- Fold Resistance (1b, BB7-M414I replicon; BB7-M414I vs 1b, BB7): 8 fold
- Viral Load Reduction (1b, BB7-M414I replicon; BB7-M414I, 2240 nM HCV-796, 3-day assay): 1.5 ± 0.2 log
- EC50 (1b, BB7-M414I replicon; Hepatitis C virus, 72 h, BB7-M414I, 3-day assay, read-out: HCV RNA EC50 (nM) ± SD): 23 ± 3 nM
- Fold Resistance (1b, BB7-M414T replicon; 1b, BB7-M414T vs 1b, BB7): 1 fold
- Viral Load Reduction (1b, BB7-M414T replicon; 1b, BB7-M414T, 2240 nM HCV-796, 3-day assay): 2.0 ± 0.2 log
- change of susceptibility to HCV-796 (in words) (1b, BB7-M414T replicon; M414T replicon vs wild type): did not change the susceptibility
- Fold Resistance (1b, BB7-M414V replicon; BB7-M414V vs 1b, BB7): 3 fold
- Viral Load Reduction (1b, BB7-M414V replicon; BB7-M414V, 2240 nM HCV-796, 3-day assay): 1.5 ± 0.1 log
- EC50 (1b, BB7-M414V replicon; Hepatitis C virus, 72 h, BB7-M414V, 3-day assay, read-out: HCV RNA EC50 (nM) ± SD): 8 ± 1 nM
- Fold Resistance (1b, BB7-S365A replicon; BB7-S365A vs 1b, BB7): 41 fold
- Viral Load Reduction (1b, BB7-S365A replicon; BB7-S365A, 2240 nM HCV-796, 3-day assay): 1.7 ± 0.1 log
- EC50 (1b, BB7-S365A replicon; Hepatitis C virus, 72 h, BB7-S365A, 3-day assay, read-out: HCV RNA EC50 (nM) ± SD): 124 ± 41 nM
- Fold Resistance (1b, BB7-S365T replicon; BB7-S365T vs 1b, BB7): 212 fold
- Viral Load Reduction (1b, BB7-S365T replicon; BB7-S365T, 2240 nM HCV-796, 3-day assay): 0.6 ± 0.1 log
- EC50 (1b, BB7-S365T replicon; Hepatitis C virus, 72 h, BB7-S365T, 3-day assay, read-out: HCV RNA EC50 (nM) ± SD): 643 ± 168 nM
- Fold Resistance (1b, BB7-S368F replicon; BB7-S368F vs 1b, BB7): 2 fold
- Viral Load Reduction (1b, BB7-S368F replicon; BB7-S368F, 2240 nM HCV-796, 3-day assay): 1.4 ± 0.3 log
- EC50 (1b, BB7-S368F replicon; Hepatitis C virus, 72 h, BB7-S368F, 3-day assay, read-out: HCV RNA EC50 (nM) ± SD): 5 ± 2 nM
